Results on one molecule are retold here after US20180185374A1, “INHIBITORS OF MTOR KINASE AS ANTI-VIRAL AGENTS” (THE TRUSTEES OF PRINCETON UNIVERSITY, priority 2009, published 2018).

Some results are limits rather than exact numbers.

For assay [1], the system named is HCMV. The assay can be described thus: GFP marker expression from viral genome, percentage of infected cells. In kind it is cell-based, human cytomegalovirus. Conditions: 24 hpi; 250 nM. Here is the method: FIG. 2. […] Serum-starved confluent fibroblasts were infected with HCMV at a multiplicity of 3 PFU/cell. […] Control cultures received the vehicle in which Torin1 was dissolved (NT). At 2 hpi cells were harvested, and cell-associated viral DNA was quantified by real-time PCR analysis. Error bars represent the standard errors of the means from two independent experiments performed in duplicate. […] The level of IE1 was determined at 6 hpi by a Western blot assay using an IE1-specific monoclonal antibody. The image is representative of two independent experiments. […] The expression of a GFP marker gene present in the viral genome was monitored at 24 h after infection in the presence or absence of drug.

The subject of assay [2] is HSV-1. In words: HSV-1 replication in MEFs, TCID50. The assay is classed as cell-based, herpes simplex virus type 1. To be noted: 72 hpi.
The subject of assay [3] is 4EBP1. The assay can be described thus: 4EBP1 phosphorylation in MCMV-infected MEFs, Western blot. In kind it is cell-based, mouse. Conditions: Torin1 250 nM. As for the experimental part:
FIG. 5. […] Fresh serum-free medium containing drugs was added every other day. At the indicated times, cell-free supernatants were harvested, and the amount of virus in the supernatant was quantified by the TCID50 method. Error bars represent the standard errors of the means form two independent experiments performed in duplicate. […] At 48 hpi the phosphorylation state of the indicated mTORC1 targets was analyzed by a Western blot assay by using antibodies to phosphorylated targets (4EBP1-PT^37/46 and rpS6-PS^235/6) and total proteins. The results are representative of three independent experiments.
FIG. 6. mTORC2 and its target, Akt, are not the source of rapamycin-resistant mTOR activity. […] At 6 days post infection the amount of MCMV in cell-free supernatants was determined by the TCID50 method. […] At 48 hpi, the phosphorylation state of mTORC1 targets was assessed by Western blotting using antibodies specific for the indicated proteins. (C) Confirmation of the genotype of Rictor-null MEFs. Total DNA was isolated from wild-type and Rictor-null MEFs, and the genotype was confirmed by use of PCR. (D) Same as above (A) except that Akt1- and Akt2-null MEFs were used. (E) Same as above (B) except that Akt1- and Akt2-null MEFs were used. For B and E, the error bars represent the standard errors of the means from at least two independent experiments, each performed in duplicate. For […], tubulin was assayed as a loading control. […] Protein from wild-type or mutant MEFs was analyzed by Western blotting by use of an antibody specific for Akt.
The identification of the functional roles of proteins in the mTOR signaling pathway has been facilitated by the generation of knockout mouse strains lacking individual mTOR components. […] Also as observed for HCMV (FIG. 4A), MCMV infection induced mTORC1 activity, as measured by the increased phosphorylation of rpS6. […]
We first investigated the requirement for mTORC2 for the replication of MCMV. […] Finally, that 4EBP1 was not detected in lysates of these cells by Western blot assay confirmed the phenotype of the MEFs.
Background: Immunoblotting shows a protein as a band on a membrane.

Assay [4] has as its system HCMV. In words: Torin1 drug release experiment, HCMV yield 16 days post infection by TCID50. Conditions: ≤250 nM drug. In kind it is cell-based, human cytomegalovirus. Here is the method: FIG. 1. […] Serum-starved confluent human fibroblasts were infected with HCMV at a multiplicity of 0.05 PFU/cell. Cell-free virus was quantified by a TCID50 assay, and error bars represent the standard errors of the means from two independent experiments, each performed in duplicate. […] Supernatants were harvested every other day and replaced with fresh medium containing the appropriate treatment, and virus in the supernatant was assayed on the indicated days. […] Infected fibroblasts were treated with various doses of Torin1. Medium with drug was replaced every other day, and virus in the supernatant was assayed on day 8 post infection (black bars). On day 8, a second set of cultures was washed twice, serum-free medium containing no drug was added to each well, and virus was assayed after an additional 8 days (16 days post infection) (white bars).
To further confirm that the viral growth defect was not the result of cytotoxicity, we performed a drug release experiment. […] Eight days later, virus in the supernatant was quantified by the TCID50 method (16 days post infection) (FIG. 1B).

For assay [5], the system named is γHV68. The assay can be described thus: γHV68 replication in MEFs, TCID50. The assay is classed as cell-based, murine gammaherpesvirus 68. Conditions: 0.05 PFU/cell, 6 days post infection, rapamycin 20 nM, Torin1 250 nM.

On to `CCC(=O)N1CCN(c2ccc(-n3c(=O)ccc4cnc5ccc(-c6cnc7ccccc7c6)cc5c43)cc2C(F)(F)F)CC1` [Torin1], for which the “percentage of cells expressing GFP marker” value in assay [1] is recorded as “did not alter the percentage of cells”. Further, the “production of HSV-1” value in assay [2] (4EBP1-null MEFs) is “failed to inhibit”. For the same molecule, the HSV-1 replication entry in assay [2] (MEFs, 0.05 PFU/cell, rapamycin 20 nM, Torin1 250 nM) is on record as “inhibited both viruses”. Besides, the 4EBP1 phosphorylation entry in assay [3] (Akt1/Akt2-null MEFs) is “inhibited”; in assay [3] (Rictor-null MEFs, 48 hpi) it was “effectively inhibited”. Further, in assay [3] (wild-type MEFs, 48 hpi, rapamycin 20 nM, LY294002 20 μM), the “phosphorylation of 4EBP1 in MCMV-infected MEFs” value is “inhibited”. Also, the “increase in virus yield after reversal of 8-day treatment” value in assay [4] is recorded as at least 100 fold. Moreover, the γHV68 replication entry in assay [5] is “inhibited both viruses”.
